Data taken from patent US11890279B2, “Quinolines that modulate SERCA and their use for treating disease” (Neurodon Corporation, priority 2020, dated 2024).

Key:
ob/ob mice = test: Glucose (GTT) and insulin (ITT) tolerance tests in ob/ob mice; format: in vivo, mouse; conditions: vs vehicle
Method: For the GTT, D-glucose dissolved in 0.9% NaCl was delivered intraperitoneally at a dose of 1 g/kg. The blood glucose level was measured 0, 15, 30, 60, 90, and 120 min after glucose administration. For the ITT, insulin was administered intraperitoneally at a dose of 1 IU/kg. The blood glucose level was measured 0, 15, 30, 60, 90, and 120 min after insulin administration. Glucose levels were measured in blood samples drawn from the tail vein using OneTouch Ultra 2 Meter (LifeScan, Inc.).

human adenosine A2A = human adenosine A2A (Homo sapiens (Human), UniProt P29274); test: Selectivity panel of 164 targets; conditions: 10 μM in duplicate; one of only 4 hits among 164 targets
Chain of human adenosine A2A (P29274 whole entry): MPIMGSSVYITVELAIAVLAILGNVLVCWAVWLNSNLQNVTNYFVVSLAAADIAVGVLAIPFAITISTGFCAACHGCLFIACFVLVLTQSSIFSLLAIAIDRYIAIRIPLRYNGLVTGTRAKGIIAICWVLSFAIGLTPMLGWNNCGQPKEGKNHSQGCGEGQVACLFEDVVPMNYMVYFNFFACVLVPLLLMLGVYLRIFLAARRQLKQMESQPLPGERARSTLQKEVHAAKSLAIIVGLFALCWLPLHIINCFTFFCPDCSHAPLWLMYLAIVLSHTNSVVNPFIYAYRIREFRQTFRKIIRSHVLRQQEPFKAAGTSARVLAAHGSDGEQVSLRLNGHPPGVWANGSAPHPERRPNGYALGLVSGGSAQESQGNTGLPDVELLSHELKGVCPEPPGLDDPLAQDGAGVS
From the text: (§1) The methods used here for each target were adapted from the scientific literature to maximize reliability and reproducibility.

[1] = target: human nerepinephrine (NET) transporter (Homo sapiens (Human), UniProt P23975); test: Selectivity panel of 164 targets; conditions: 10 μM in duplicate; one of only 4 hits among 164 targets
From the text: as §1

[2] = system: rabbit monoamine transporter; test: Selectivity panel of 164 targets; conditions: 10 μM in duplicate; one of only 4 hits among 164 targets
From the text: as §1

[3] = target: human serotonin (5-hydroxytryptamine) 5-HT2B (Homo sapiens (Human), UniProt P41595); test: Selectivity panel of 164 targets; conditions: 10 μM in duplicate; one of only 4 hits among 164 targets
Chain of human serotonin (5-hydroxytryptamine) 5-HT2B (P41595 whole entry): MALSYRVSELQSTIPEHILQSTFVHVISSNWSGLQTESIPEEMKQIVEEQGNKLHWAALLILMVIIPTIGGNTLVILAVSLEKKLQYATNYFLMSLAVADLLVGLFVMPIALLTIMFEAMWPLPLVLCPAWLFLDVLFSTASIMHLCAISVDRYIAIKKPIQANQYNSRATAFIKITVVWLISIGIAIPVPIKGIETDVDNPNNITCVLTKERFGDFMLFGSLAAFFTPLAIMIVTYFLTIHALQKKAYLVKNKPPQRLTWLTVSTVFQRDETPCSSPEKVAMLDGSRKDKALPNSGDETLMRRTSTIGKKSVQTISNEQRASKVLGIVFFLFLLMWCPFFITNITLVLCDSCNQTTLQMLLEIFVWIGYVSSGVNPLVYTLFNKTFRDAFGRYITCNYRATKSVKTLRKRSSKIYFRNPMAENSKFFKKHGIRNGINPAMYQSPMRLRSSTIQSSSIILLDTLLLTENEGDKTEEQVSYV
From the text: The methods used here for each target were adapted from the scientific literature to maximize reliability and reproducibility. Reference standards were run as an integral part of each essay to ensure the validity of the results obtained.

[4] = system: APPSWE/PSEN1dE9 double-transgenic mice; test: Alzheimer's model behavioral test, Morris water maze; format: in vivo, mouse; conditions: 10 mg/kg IP daily for 4 weeks; vs vehicle
Method: Briefly, the mice were shown a visible platform that was subsequently removed. The distance that the mice swim searching for the platform was measured, with a shorter distance indicating increased memory. […] Motor coordination, strength, and balance was assessed using the Rotarod test (FIG. 6, B). Mice were first trained until they could remain on a rotarod revolving at 16 rpm for three consecutive 120 sec trials. The next day the mice were placed back on the rotarod for a single trial at 18 rpm (maximum duration 120 sec). The duration a mouse could remain on the rotarod was recorded, and the mouse was then returned to its home cage. The speed of the rotarod was then increased to 21 rpm, and all mice were given another test trial. This process was repeated for rotarod speeds of 24, 27, 30, 33, and 36 rpm. All the speeds were repeated twice for the mice in different groups, interval 30 min every time. The Mean values of two tests were analyzed. The mice maintained longer time on the rotarod with more ability of motor coordination, strength and balance.

6-OHDA-lesioned rats = test: Behavioral tests in the 6-OHDA-lesioned rat model of Parkinson's disease; format: in vivo; conditions: 10 mg/kg IP once daily
From the text: Behavioral tests in the 6-hydroxydopamine (6-OHDA)-lesioned rat model of Parkinson's disease. Male Wistar rats were trained for both the stepping and initiation time (IT) tests 6 days before treatment with 6-OHDA or NaCl (day −6). 5 days before treatment with 6-OHDA, animals from groups 1 to 3 were given vehicles [NaCl or a mixture of DMSO (10%)/tween 80 (10%)/water (80%)] once daily for 16 days. […] All the treatments were given via the IP route, once daily, Sunday excluded. Surgery was performed on DO under ketamine (50 mg/kg) and xylazine (10 mg/kg). Animals received a unilateral injection of 6-OHDA, 6 μl (sigma Aldrich) in the left substantia nigra pars compacta. During surgery, local analgesia was achieved using subcutaneous injections of lidocaine. At the end of surgery, animals were treated with buprenorphine (0.05 mg/kg, S.C.). […] For the IT test, only one of the two forelimbs was left free to move and the time that is necessary to initiate the movement toward the plane surface was recorded, using 180 sec as break-off point. […] In the stepping test, the rat was held by the experimenter and only one of the two forelimbs was left free to move above a plane surface. The other hand fixed the forelimb not to be monitored with one paw touching the table. The animal was then be moved slowly forward by the experimenter. The number of adjusting steps was counted for the right paw. […] In the cylinder test, animals were placed in a Plexiglas cylinder and, immediately, videotaped for 15 min. During this time, the numbers of contacts made on the cylinder wall with both the ipsilateral, the contralateral, and the two paws simultaneously (double contacts) were recorded and then expressed as a percentage of the total number of contacts.

CSM14.1 cells = test: ER stress cell survival assay (thapsigargin); format: cell-based; conditions: compound 2 μM; about 15 μM thapsigargin; CSM14.1 cells;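 note: survival read as CellTiter-Glo luminescence after overnight incubation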

Cc1ccc2cccc(NC(=O)c3ccc(OC(C)C)cc3)c2n1 [Compound A12, 4-Isopropoxy-N-(2-methylquinolin-8-yl)benzamide]
hyperglycemic response to i.p. glucose challenge (GTT) (ob/ob mice; day 7 post-injection): significantly reduced | insulin-stimulated glucose deposal (ITT) (ob/ob mice; day 10 post-injection): strongly enhanced | response against human adenosine A2A (human adenosine A2A): significant responses | response against human NET transporter [1]: significant responses | response against rabbit monoamine transporter [2]: significant responses | response against human 5-HT2B [3]: significant responses | total distance in hidden platform test (Morris water maze) [4]: a decrease in total distance | initiation time (IT test) (6-OHDA-lesioned rats): reduced | number of adjusting steps (stepping test) (6-OHDA-lesioned rats): increased | number of contacts (cylinder test) (6-OHDA-lesioned rats): increased

Cc1ccc2cccc(NC(=O)c3ccc(N(C)C)cc3)c2n1 [Compound C18, 4-N,N-Dimethylamino-N-(2-methylquinolin-8-yl)benzamide]
Cell Survival (CSM14.1 cells): B (B represents a value between 10% and 50%)
